The values below are quoted from earlier work in PubChem BioAssay AID1259409 (Chemical Carcinogenesis Research Information System (CCRIS), 2018).

For the data set, the system named is rodent chemically induced tumor inhibition, incidence and multiplicity. Kind of data set: CCRIS tumor inhibitor studies.

On to `O=c1cc(-c2ccc(O)c(O)c2)oc2cc(O)cc(O)c12`, for which the “tumour outcome (control, treated, inhibition, significance)” value runs as follows: (Carcinogen: 7,12-DIMETHYLBENZ[A]ANTHRACENE, 57-97-6, Dose [Inhibitor]: 0, 0.2 ML OF A 1% SOLUTION 1/D FOR 2 WK APPLIED 5 MIN POST EACH CARCINOGEN DOSE THEN 1/D FOR 4 WK DURING PROMOTION STAGE, Route [Inhibitor]: DERMAL, Species: MOUSE, Strain/Sex: SWISS/MALE, Target Tissue: Type of Lesion: SKIN: PAPILLOMA, Dose [Carcinogen]: 0.2 ML OF A 0.24% SOLUTION IN DMSO 1/D FOR 2 WK, Promoter: CROTON OIL, 8001-28-3) 23/23 (100%), 10/24 (42%), 58%, not calculated; (Carcinogen: 7,12-DIMETHYLBENZ[A]ANTHRACENE, 57-97-6, Dose [Inhibitor]: 0, 0.2 ML OF A 1% SOLUTION 1/D FOR 2 WK APPLIED 5 MIN PRIOR TO EACH CARCINOGEN DOSE (STUDY DURATION: 20 WK), Route [Inhibitor]: DERMAL, Species: MOUSE, Strain/Sex: SWISS/MALE, Target Tissue: Type of Lesion: SKIN: PAPILLOMA, Dose [Carcinogen]: 0.2 ML OF A 0.24% SOLUTION IN DMSO 1/D FOR 2 WK, Promoter: CROTON OIL, 8001-28-3) 23/23 (100%), 20/23 (87%), 13%, not calculated.
In the case of `N`, the “tumour outcome (control, treated, inhibition, significance)” value is given as 5/15 (33%), 3/15 (20%), 39%, not significant (Carcinogen: N-BUTYL-N-(4-HYDROXYBUTYL)NITROSAMINE, 3817-11-6, Dose [Inhibitor]: 0, 1% IN DRINKING WATER FOR 31 WK BEGINNING POST CARCINOGEN DOSE (STUDY DURATION: 36 WK), Route [Inhibitor]: ORAL, Species: RAT, Strain/Sex: F344/MALE, Target Tissue: Type of Lesion: URINARY BLADDER: CARCINOMA, Dose [Carcinogen]: 0.05% IN DRINKING WATER FOR 4 WK, Promoter: BUTYLATED HYDROXYANISOLE, 25013-16-5); 8/15 (53%), 4/15 (27%), 49%, not significant (Carcinogen: N-BUTYL-N-(4-HYDROXYBUTYL)NITROSAMINE, 3817-11-6, Dose [Inhibitor]: 0, 1% IN DRINKING WATER FOR 31 WK BEGINNING POST CARCINOGEN DOSE (STUDY DURATION: 36 WK), Route [Inhibitor]: ORAL, Species: RAT, Strain/Sex: F344/MALE, Target Tissue: Type of Lesion: URINARY BLADDER: CARCINOMA, Dose [Carcinogen]: 0.05% IN DRINKING WATER FOR 4 WK, Promoter: SODIUM BICARBONATE, 144-55-8); 8/15 (53%), 8/15 (53%), 0%, not significant (Carcinogen: N-BUTYL-N-(4-HYDROXYBUTYL)NITROSAMINE, 3817-11-6, Dose [Inhibitor]: 0, 1% IN DRINKING WATER FOR 31 WK BEGINNING POST CARCINOGEN DOSE (STUDY DURATION: 36 WK), Route [Inhibitor]: ORAL, Species: RAT, Strain/Sex: F344/MALE, Target Tissue: Type of Lesion: URINARY BLADDER: PAPILLOMA, Dose [Carcinogen]: 0.05% IN DRINKING WATER FOR 4 WK, Promoter: BUTYLATED HYDROXYANISOLE, 25013-16-5); 9/15 (60%), 8/15 (53%), 12%, not significant (Carcinogen: N-BUTYL-N-(4-HYDROXYBUTYL)NITROSAMINE, 3817-11-6, Dose [Inhibitor]: 0, 1% IN DRINKING WATER FOR 31 WK BEGINNING POST CARCINOGEN DOSE (STUDY DURATION: 36 WK), Route [Inhibitor]: ORAL, Species: RAT, Strain/Sex: F344/MALE, Target Tissue: Type of Lesion: URINARY BLADDER: PAPILLOMA, Dose [Carcinogen]: 0.05% IN DRINKING WATER FOR 4 WK, Promoter: SODIUM BICARBONATE, 144-55-8).
`CC(C)(c1ccc(O)cc1)c1ccc(O)cc1`: under “Carcinogen: N-NITROSOBIS(2-HYDROXYPROPYL)AMINE, 53609-64-6, Dose [Inhibitor]: 0, 10000 PPM IN DIET FOR 27 WK BEGINNING 9 WK POST CARCINOGEN TREATMENT (STUDY DURATION: 37 WK), Route [Inhibitor]: ORAL, Species: RAT, Strain/Sex: F344/FEMALE, Target Tissue: Type of Lesion: THYROID GLAND: ADENOMA, Dose [Carcinogen]: 2000 MG/KG BW 1 WK POST BILATERAL OVARIECTOMY, Promoter: SULFADIMETHOXINE, 122-11-2”, the outcome is 0/12 (0%), 0/15 (0%), 0%, not significant. Besides, the “tumour outcome (control, treated, inhibition, significance)” value (Carcinogen: N-NITROSOBIS(2-HYDROXYPROPYL)AMINE, 53609-64-6, Dose [Inhibitor]: 0, 10000 PPM IN DIET FOR 27 WK BEGINNING 9 WK POST CARCINOGEN TREATMENT (STUDY DURATION: 37 WK), Route [Inhibitor]: ORAL, Species: RAT, Strain/Sex: F344/FEMALE, Target Tissue: Type of Lesion: THYROID GLAND: CARCINOMA, Dose [Carcinogen]: 2000 MG/KG BW 1 WK POST BILATERAL OVARIECTOMY, Promoter: SULFADIMETHOXINE, 122-11-2) is on record as 10/12 (83%), 4/15 (27%), 67%, p<0.01.
Consider `CC/C=C\C/C=C\C/C=C\C/C=C\C/C=C\C/C=C\CCC(=O)O`, for which the “tumour outcome (control, treated, inhibition, significance)” value (Carcinogen: 7,12-DIMETHYLBENZ[A]ANTHRACENE, 57-97-6, Dose [Inhibitor]: 0, 0.5 ML 2/WK FOR 19 WK BEGINNING 1 WK POST CARCINOGEN DOSE ADMINISTERED TO RATS FED HIGH-FAT (20% CORN OIL) DIETS (STU, Route [Inhibitor]: GAVAGE, Species: RAT, Strain/Sex: SPRAGUE-DAWLEY/FEMALE, Target Tissue: Type of Lesion: MAMMARY GLAND: ADENOCARCINOMA, Dose [Carcinogen]: 5 MG ONCE AT 50 D OF AGE, Promoter: NONE USED) is 24/30 (80%), 6/24 (25%), 69%, p<0.05.
On to `CSCC[C@H](NC(C)=O)C(=O)O`, for which the “tumour outcome (control, treated, inhibition, significance)” value (Carcinogen: 7,12-DIMETHYLBENZ[A]ANTHRACENE, 57-97-6, Dose [Inhibitor]: 0.06 MMOL/G DIET DAILY FOR 17 WK STARTING 1 WK PRIOR TO CARCINOGEN TREATMENT AND CONTINUING THROUGH THE END OF THE STUDY, Route [Inhibitor]: ORAL, Species: RAT, Strain/Sex: SPRAGUE-DAWLEY/FEMALE, Target Tissue: Type of Lesion: MAMMARY GLAND: TUMOR, Dose [Carcinogen]: 12 MG IN 1 ML OLIVE OIL ONCE, Promoter: NONE USED) is listed as 59%, 69%, -17%, not calculated.
Consider `Cc1c(O)cc2c(c1C)OC(C)(CCCC(C)CCCC(C)CCCC(C)C)CC2` (centres undefined), for which the “tumour outcome (control, treated, inhibition, significance)” value runs as follows: (Carcinogen: N-NITROSODIETHYLAMINE, 55-18-5, Dose [Inhibitor]: 0, 5% IN BASAL DIET BEGINNING AT 8 WK OF AGE AND CONTINUING FOR 22 MO (STUDY DURATION: 22 MO), Route [Inhibitor]: ORAL, Species: MOUSE, Strain/Sex: 6HF1/MALE, Target Tissue: Type of Lesion: ESOPHAGUS: SQUAMOUS CELL CARCINOMA, Dose [Carcinogen]: 100 MG/L IN DRINKING WATER DURING 11-13 WK OF AGE, Promoter: NONE USED) 6/50 (12%), 0/50 (0%), 100%, not calculated; (Carcinogen: N-NITROSODIETHYLAMINE, 55-18-5, Dose [Inhibitor]: 0, 5% IN BASAL DIET BEGINNING AT 8 WK OF AGE AND CONTINUING FOR 22 MO (STUDY DURATION: 22 MO), Route [Inhibitor]: ORAL, Species: MOUSE, Strain/Sex: 6HF1/MALE, Target Tissue: Type of Lesion: FORESTOMACH: SQUAMOUS CELL CARCINOMA, Dose [Carcinogen]: 100 MG/L IN DRINKING WATER DURING 11-13 WK OF AGE, Promoter: NONE USED) 82%, 72%, 12%, not calculated; (Carcinogen: N-NITROSODIETHYLAMINE, 55-18-5, Dose [Inhibitor]: 0, 5% IN BASAL DIET BEGINNING AT 8 WK OF AGE AND CONTINUING FOR 22 MO (STUDY DURATION: 22 MO), Route [Inhibitor]: ORAL, Species: MOUSE, Strain/Sex: 6HF1/MALE, Target Tissue: Type of Lesion: LIVER: TUMOR, Dose [Carcinogen]: 100 MG/L IN DRINKING WATER DURING 11-13 WK OF AGE, Promoter: NONE USED) 39/50 (78%), 40/50 (80%), -3%, not calculated; (Carcinogen: N-NITROSODIETHYLAMINE, 55-18-5, Dose [Inhibitor]: 0, 5% IN BASAL DIET BEGINNING AT 8 WK OF AGE AND CONTINUING FOR 22 MO (STUDY DURATION: 22 MO), Route [Inhibitor]: ORAL, Species: MOUSE, Strain/Sex: 6HF1/MALE, Target Tissue: Type of Lesion: LUNG: TUMOR, Dose [Carcinogen]: 100 MG/L IN DRINKING WATER DURING 11-13 WK OF AGE, Promoter: NONE USED) 42/50 (84%), 24/50 (48%), 43%, p<0.05.
